In paper PMC5350174, “Orai and TRPC channel characterization in FcεRI‐mediated calcium signaling and mediator secretion in human mast cells” (Physiological Reports, 2017) one finds EC50, IC50 and inhibition data, which are given here for three compounds.

SMILES strings stand for the structures.

Holding throughout (format): cell-based
The target of experiment [1] is T1, TRPC6 (Homo sapiens, UniProt Q9Y210).
T1 sequence (Q9Y210 1-931): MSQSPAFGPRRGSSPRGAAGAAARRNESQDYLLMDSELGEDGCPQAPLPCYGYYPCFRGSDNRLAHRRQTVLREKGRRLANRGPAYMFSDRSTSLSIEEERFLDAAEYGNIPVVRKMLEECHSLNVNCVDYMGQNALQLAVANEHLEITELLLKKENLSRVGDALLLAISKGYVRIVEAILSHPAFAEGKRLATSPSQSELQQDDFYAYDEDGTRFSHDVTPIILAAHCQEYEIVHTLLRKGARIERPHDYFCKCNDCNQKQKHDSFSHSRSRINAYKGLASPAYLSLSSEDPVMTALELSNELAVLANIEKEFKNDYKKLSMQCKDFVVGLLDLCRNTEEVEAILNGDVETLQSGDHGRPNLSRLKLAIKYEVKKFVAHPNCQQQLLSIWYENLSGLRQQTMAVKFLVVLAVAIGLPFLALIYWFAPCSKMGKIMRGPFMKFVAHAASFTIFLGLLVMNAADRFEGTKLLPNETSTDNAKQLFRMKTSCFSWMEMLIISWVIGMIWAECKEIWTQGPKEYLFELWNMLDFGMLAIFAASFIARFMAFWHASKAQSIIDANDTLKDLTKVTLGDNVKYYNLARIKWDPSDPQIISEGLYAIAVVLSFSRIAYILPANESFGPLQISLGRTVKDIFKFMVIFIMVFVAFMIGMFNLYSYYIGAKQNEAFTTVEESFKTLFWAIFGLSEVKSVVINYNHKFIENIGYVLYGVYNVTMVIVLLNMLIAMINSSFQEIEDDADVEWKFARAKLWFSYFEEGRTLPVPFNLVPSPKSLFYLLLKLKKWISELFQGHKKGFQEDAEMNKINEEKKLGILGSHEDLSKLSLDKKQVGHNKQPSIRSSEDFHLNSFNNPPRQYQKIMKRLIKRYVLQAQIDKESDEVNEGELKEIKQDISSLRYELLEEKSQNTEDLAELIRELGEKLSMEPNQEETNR
The experiment can be described thus: Fura-2 calcium imaging in HEK-TRPC6 cells; also whole-cell patch clamp of hTRPC6 in HEK293. More on the design: human TRPC6 expressed in HEK cells.

The target in experiment [2] is T1, TRPC6. In words: Fura-2 calcium imaging in HEK-TRPC6 cells, inhibition of GSK-2934A-induced signal. More on the design: human TRPC6 stably expressed in HEK cells.
For experiment [3], the target named is T2, Orai1 (Homo sapiens, UniProt Q96D31).
T2 construct: Orai1/STIM1 over-expressed in HEK cells; with STIM1
T2 sequence (Q96D31 whole entry): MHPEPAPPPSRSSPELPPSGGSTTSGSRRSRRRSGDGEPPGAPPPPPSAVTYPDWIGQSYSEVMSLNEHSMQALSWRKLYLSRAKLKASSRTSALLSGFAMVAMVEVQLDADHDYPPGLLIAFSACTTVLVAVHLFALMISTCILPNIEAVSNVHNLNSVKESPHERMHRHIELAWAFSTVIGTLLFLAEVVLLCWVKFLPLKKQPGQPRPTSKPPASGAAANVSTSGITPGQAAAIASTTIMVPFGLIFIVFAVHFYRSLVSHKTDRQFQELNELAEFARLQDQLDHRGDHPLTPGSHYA
T2 sequence (Q13586 23-685 partner): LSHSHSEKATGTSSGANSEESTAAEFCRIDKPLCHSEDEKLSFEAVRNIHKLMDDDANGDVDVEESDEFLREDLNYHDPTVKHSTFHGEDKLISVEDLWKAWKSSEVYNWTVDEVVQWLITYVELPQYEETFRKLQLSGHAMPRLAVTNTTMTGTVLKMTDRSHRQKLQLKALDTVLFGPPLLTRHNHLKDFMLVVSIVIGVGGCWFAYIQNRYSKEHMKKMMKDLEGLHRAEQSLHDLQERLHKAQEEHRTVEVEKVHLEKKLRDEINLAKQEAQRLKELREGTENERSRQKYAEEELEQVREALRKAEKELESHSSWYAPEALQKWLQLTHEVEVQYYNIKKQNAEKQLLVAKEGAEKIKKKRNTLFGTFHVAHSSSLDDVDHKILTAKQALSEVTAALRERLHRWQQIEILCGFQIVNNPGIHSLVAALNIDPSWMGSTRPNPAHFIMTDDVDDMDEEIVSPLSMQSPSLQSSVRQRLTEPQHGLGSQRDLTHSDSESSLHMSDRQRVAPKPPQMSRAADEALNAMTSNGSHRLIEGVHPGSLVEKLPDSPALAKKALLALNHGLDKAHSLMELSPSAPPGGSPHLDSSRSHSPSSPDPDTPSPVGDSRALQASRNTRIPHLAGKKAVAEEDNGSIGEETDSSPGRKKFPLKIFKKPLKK
In words: ICRAC current inhibition in HEK cells over-expressing Orai1/STIM1 (data not shown). The settings on record: HEK293; read-out: % inhibition at 10 μmol/L.

Turning to `O=C(c1cc2c(s1)CCCCC2)N1CCC(n2c(=O)[nH]c3ccccc32)CC1` [GSK-2934A, GSK1702934A], in experiment [1], the EC50 amounted to 6.6 pEC50. Turning to `Cc1sc(Nc2ccc(Cl)cc2F)nc1C(=O)N1CCC[C@H](C)[C@@H]1C` [GSK-3503A, GSK2833503A], the IC50 in experiment [2] is given as 7.8 pIC50. With `COc1ccc(OC)c(-c2ccc(NC(=O)c3ccncc3F)cc2)c1` [Synta66], the inhibition at 10 µM in experiment [3] amounted to 94 ± 3%.
